Measured values published in patent publication US6420570B1, “Psoralen compounds” (priority 1993, dated 2002).
Counter-ions that a name gives are not always drawn.

Test system: R17
Assay: R17 bacteriophage inactivation screen, varying compound concentration
Type: cell-based
Settings: starting titer approx. 7.1 logs
Procedure: The assay used to predict pathogen inactivation efficiency and to determine nucleic acid binding of the photoreactive binding compounds of the present invention was that in which a bacteriophage, R17, in solution with the desired substrate was irradiated. The ability of the phage to subsequently infect bacteria and inhibit their growth was measured. The bacteriophage was selected for its relatively accessible nucleic acid such that the culture growth inhibition would accurately reflect nucleic acid damage by the test compounds. The bacteriophage assay for nucleic acid binding to test compounds offers a safe and inexpensive procedure to identify compounds likely to display efficient pathogen inactivation. […] An aliquot (0.5 mL) was transferred to a 1.5 mL, snap-top polyethylene tube. An aliquot (0.004-0.040 mL) of the test compound stock solution prepared in water, ethanol or dimethylsulfoxide at 0.80-8.0 mM was added to the tube. Compounds were tested at concentrations between 4 μM and 320 μM. (AMT is commercially available from HRI, Inc., Concord, Calif.; 8-MOP is commercially available from Sigma, St. Louis, Mo.). The tubes were placed in a light device as described in EXAMPLE 1 and irradiated for between 1 and 10 minutes. […] To make the dilutions, a 0.100 mL aliquot of the irradiated solution of phage and test compound was added to the first dilution tube of 0.4 mL of media then 0.020 mL of this solution was added to the second tube of 0.5 mL medium (1:25). The second solution was then diluted serially (1:25) into the remaining tubes. […] After the top agar hardened, the plates were incubated at 37° C. overnight. The plaque forming units were then counted the following morning and the titer of the phage remaining after phototreatment was calculated based on the dilution factors. The following controls were run: the “phage only” in which phage was not treated with test compound and not irradiated (listed as “starting titer” in the tables below); the “UV only” in which the phage was irradiated in the absence of test compound; and the “dark” control in which the phage/test compound solution was not irradiated before it was diluted and plated.

SMILES: Cc1oc2c(C)c3oc(=O)cc(C)c3cc2c1CNCCCCN [Compound 6, 4′-(6-Aminohexyl-2-aza)-4,5′,8-trimethylpsoralen Dihydrochloride]
- R17 log kill 16 uM (Table 6, 1 minute irradiation = 1.2 J/cm^2): >6.1 log
- R17 log kill 32 uM (Table 6, 32 uM, 1 minute irradiation = 1.2 J/cm^2): >6.1 log
- R17 log kill 64 uM (Table 6, 64 uM, 1 minute irradiation = 1.2 J/cm^2): >6.1 log
- R17 log kill 8 uM (Table 7, 8 uM, 1 minute irradiation): >6 log
- R17 log kill 16 uM (Table 7, 1 minute irradiation): >6 log
